Key:
Rab10 pThr73 [1] = assay: Rab10 Thr73 dephosphorylation (immunoblot) in LRRK2^G2019S MEFs; format: cell-based; details: Mus musculus, read-out: pRab10 inhibited in LRRK2^G2019S MEFs
Rab10 pThr73 [2] = assay: as above; format: cell-based, mouse; details: Mus musculus, read-out: pRab10 inhibited in LRRK2^G2019S MEFs
Rab10 pThr73 [3] = assay: Rab10 Thr73 dephosphorylation (immunoblot) in WT MEFs; format: cell-based, mouse; details: Mus musculus, read-out: pRab10 inhibited in WT MEFs
How it was run: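 Wild-type mouse embryonic fibroblasts in 6-well plates were treated with LRRK2 PROTACs, with two biological replicates per condition. Cells were washed in PBS and lysed on ice in buffer containing phosphatase and protease inhibitors plus 1% Triton X-100, then clarified at 15,000 g. Rab10 Thr73 phosphorylation was measured by quantitative immunoblotting of 15 to 20 μg protein on 4-12% Bis-Tris gels.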

Compound	inhibition at 0.033 µM (Rab10 pThr73 [1]; 33 nM/4 h treatment)	inhibition at 0.033 µM (Rab10 pThr73 [1]; 33 nM/24 h treatment)	inhibition at 1 µM (Rab10 pThr73 [2]; 1 μM/4 h treatment)	inhibition at 1 µM (Rab10 pThr73 [2]; 1 μM/24 h treatment)	inhibition at 0.033 µM (Rab10 pThr73 [3]; 33 nM/4 h treatment)	inhibition at 0.033 µM (Rab10 pThr73 [3]; 33 nM/24 h treatment)	inhibition at 1 µM (Rab10 pThr73 [3]; 1 μM/4 h treatment)	inhibition at 1 µM (Rab10 pThr73 [3]; 1 μM/24 h treatment)
CNc1nc(Nc2ccc(OCCOCCOCCOCCSC(C)(C)[C@@H](NC(=O)C3(F)CC3)C(=O)N3C[C@H](O)C[C@H]3C(=O)NCc3ccc(-c4scnc4C)cc3)cc2OC)ncc1Cl [XL01145, (2S,4R)-1-((S)-1-(4-((5-chloro-4-(methylamino)pyrimidin-2-yl)amino)-3-methoxyphenoxy)-14-(1-fluorocyclopropane-1-carboxamido)-13,13-dimethyl-3,6,9-trioxa-12-thiapentadecan-15-oyl)-4-hydroxy-N-(4-(4-methylthiazol-5-yl)benzyl)pyrrolidine-2-carboxamide]	0 to 70%	0 to 90%	20 to 100%	10 to 100%	0 to 40%	0 to 60%	10 to 95%	30 to 100%
CNc1nc(Nc2ccc(C(=O)N3CCN(CCOCCOCCSC(C)(C)[C@@H](NC(=O)C4(F)CC4)C(=O)N4C[C@H](O)C[C@H]4C(=O)NCc4ccc(-c5scnc5C)cc4)CC3)cc2OC)ncc1C(F)(F)F [XL01078B, (2S,4R)-1-((S)-2-(1-fluorocyclopropane-1-carboxamido)-3-((2-(2-(2-(4-(3-methoxy-4-((4-(methylamino)-5-(trifluoromethyl)pyrimidin-2-yl)amino)benzoyl)piperazin-1-yl)ethoxy)ethoxy)ethyl)thio)-3-methylbutanoyl)-4-hydroxy-N-(4-(4-methylthiazol-5-yl)benzyl)pyrrolidine-2-carboxamide]	0 to 70%	0 to 90%	20 to 100%	10 to 100%	0 to 40%	0 to 60%	10 to 95%	30 to 100%
CNc1nc(Nc2ccc(C(=O)N3CCN(CCOCCOCCOc4cccc(C(=O)c5csc(C6CCCN6C(=O)[C@@H](NC(=O)[C@H](C)NC)C6CCCCC6)n5)c4)CC3)cc2OC)ncc1Cl (stereo partly drawn) [SD113, (S)—N—((S)-2-((S)-2-(4-(3-(2-(2-(2-(4-(4-((5-chloro-4-(methylamino)pyrimidin-2-yl)amino)-3-methoxybenzoyl)piperazin-1-yl)ethoxy)ethoxy)ethoxy)benzoyl)thiazol-2-yl)pyrrolidin-1-yl)-1-cyclohexyl-2-oxoethyl)-2-(methylamino)propenamide]	0 to 60%	0 to 70%	30 to 95%	30 to 100%	0 to 25%	10 to 40%	18 to 90%	30 to 90%
CNc1nc(Nc2ccc(C(=O)N3CCN(CCOCCOCCOCCOCCOc4cc(-c5scnc5C)ccc4CNC(=O)[C@@H]4C[C@@H](O)CN4C(=O)[C@@H](NC(=O)C4(F)CC4)C(C)(C)C)CC3)cc2OC)ncc1Cl [SD79, (2S,4R)—N-(2-((14-(4-(4-((5-chloro-4-(methylamino)pyrimidin-2-yl)amino)-3-methoxybenzoyl)piperazin-1-yl)-3,6,9,12-tetraoxatetradecyl)oxy)-4-(4-methylthiazol-5-yl)benzyl)-1-((S)-2-(1-fluorocyclopropane-1-carboxamido)-3,3-dimethylbutanoyl)-4-hydroxypyrrolidine-2-carboxamide]	0 to 60%	0 to 70%	30 to 95%	30 to 100%	0 to 25%	10 to 40%	18 to 90%	30 to 90%
CNc1nc(Nc2ccc(C(=O)N3CCN(CCCOc4cccc(C(=O)c5csc(C6CCCN6C(=O)[C@@H](NC(=O)[C@H](C)NC)C6CCCCC6)n5)c4)CC3)cc2OC)ncc1Cl (stereo partly drawn) [SD114, (S)—N—((S)-2-((S)-2-(4-(3-(3-(4-(4-((5-chloro-4-(methylamino)pyrimidin-2-yl)amino)-3-methoxybenzoyl)piperazin-1-yl)propoxy)benzoyl)thiazol-2-yl)pyrrolidin-1-yl)-1-cyclohexyl-2-oxoethyl)-2-(methylamino)propenamide]	0 to 60%	0 to 70%	30 to 95%	30 to 100%	0 to 25%	10 to 40%	18 to 90%	30 to 90%
CNc1nc(Nc2ccc(C(=O)N3CCN(Cc4cccc(CSC(C)(C)[C@H](NC(=O)C5(F)CC5)C(=O)N5C[C@H](O)C[C@H]5C(=O)NCc5ccc(-c6scnc6C)cc5)c4)CC3)cc2OC)ncc1Cl [XL01111, (2S,4R)-1-((R)-3-((3-((4-(4-((5-chloro-4-(methylamino)pyrimidin-2-yl)amino)-3-methoxybenzoyl)piperazin-1-yl)methyl)benzyl)thio)-2-(1-fluorocyclopropane-1-carboxamido)-3-methylbutanoyl)-4-hydroxy-N-(4-(4-methylthiazol-5-yl)benzyl)pyrrolidine-2-carboxamide]	0 to 70%	0 to 90%	20 to 100%	10 to 100%	0 to 40%	0 to 60%	10 to 95%	30 to 100%
CNc1nc(Nc2ccc(C(=O)N3CCN(CCOCCOCCN4CCN(c5ccc6c(c5)C(=O)N(C5CCC(=O)NC5=O)C6=O)CC4)CC3)cc2OC)ncc1Cl (stereo not shown) [SD10, 5-(4-(2-(2-(2-(4-(4-((5-chloro-4-(methylamino)pyrimidin-2-yl)amino)-3-methoxybenzoyl)piperazin-1-yl)ethoxy)ethoxy)ethyl)piperazin-1-yl)-2-(2,6-dioxopiperidin-3-yl)isoindoline-1,3-dione]	0 to 60%	0 to 70%	30 to 95%	30 to 100%	0 to 25%	10 to 40%	18 to 90%	30 to 90%
CNc1nc(Nc2ccc(C(=O)N3CCN(CCOCCOCCOCCOCCOc4cccc(C(=O)c5csc(C6CCCN6C(=O)[C@@H](NC(=O)[C@H](C)NC)C6CCCCC6)n5)c4)CC3)cc2OC)ncc1Cl (stereo partly drawn) [SD112, (S)—N—((S)-2-((S)-2-(4-(3-((14-(4-(4-((5-chloro-4-(methylamino)pyrimidin-2-yl)amino)-3-methoxybenzoyl)piperazin-1-yl)-3,6,9,12-tetraoxatetradecyl)oxy)benzoyl)thiazol-2-yl)pyrrolidin-1-yl)-1-cyclohexyl-2-oxoethyl)-2-(methylamino)propenamide]	0 to 60%	0 to 70%	30 to 95%	30 to 100%	0 to 25%	10 to 40%	18 to 90%	30 to 90%
CNc1nc(Nc2ccc(C(=O)N3C[C@@H](C)N(C[C@H]4CC[C@H](CSC(C)(C)C(NC(=O)C5(F)CC5)C(=O)N5C[C@H](O)C[C@H]5C(=O)NCc5ccc(-c6scnc6C)cc5)CC4)[C@@H](C)C3)cc2OC)ncc1Cl (stereo partly shown) [XL02031]	0 to 90%	30 to 90%	10 to 100%	80 to 100%	0 to 70%	0 to 80%	80 to 100%	80 to 100%
CNc1nc(Nc2ccc(C(=O)N3CCN(Cc4ccc(CSC(C)(C)[C@H](NC(=O)C5(F)CC5)C(=O)N5C[C@H](O)C[C@H]5C(=O)NCc5ccc(-c6scnc6C)cc5)cc4)CC3)cc2OC)ncc1C(F)(F)F [XL01070B, (2S,4R)-1-((R)-2-(1-fluorocyclopropane-1-carboxamido)-3-((4-((4-(3-methoxy-4-((4-(methylamino)-5-(trifluoromethyl)pyrimidin-2-yl)amino)benzoyl)piperazin-1-yl)methyl)benzyl)thio)-3-methylbutanoyl)-4-hydroxy-N-(4-(4-methylthiazol-5-yl)benzyl)pyrrolidine-2-carboxamide]	0 to 70%	0 to 90%	20 to 100%	10 to 100%	0 to 40%	0 to 60%	10 to 95%	30 to 100%
CNc1nc(Nc2ccc(C(=O)N3CCN(CCOCCSC(C)(C)[C@H](NC(=O)C4(F)CC4)C(=O)N4C[C@H](O)C[C@H]4C(=O)NCc4ccc(-c5scnc5C)cc4)CC3)cc2OC)ncc1Cl [XL01131, (2S,4R)-1-((R)-3-((2-(2-(4-(4-((5-chloro-4-(methylamino)pyrimidin-2-yl)amino)-3-methoxybenzoyl)piperazin-1-yl)ethoxy)ethyl)thio)-2-(1-fluorocyclopropane-1-carboxamido)-3-methylbutanoyl)-4-hydroxy-N-(4-(4-methylthiazol-5-yl)benzyl)pyrrolidine-2-carboxamide]	0 to 70%	0 to 90%	20 to 100%	10 to 100%	0 to 40%	0 to 60%	10 to 95%	30 to 100%
